The values below come from patent US20240246942A1, “KINASE INHIBITORS FOR THE TREATMENT OF NEURODEGENERATIVE DISEASES” (priority 2020, published 2024).

What all share (test): biochemical
The target in experiment [1] is T1, panel of 374 wild-type kinases (Homo sapiens, UniProt O75460).
T1 construct: purchased Reaction Biology Corporation
As to conditions: read-out: % Enzyme Activity (relative to DMSO controls), ERN1/IRE1.

Experiment [2] has as its target T2, panel of 374 wild-type kinases (Homo sapiens, UniProt O75676).
T2 construct: purchased Reaction Biology Corporation
The following applies: read-out: % Enzyme Activity (relative to DMSO controls), MSK2/RPS6KA4.

Experiment [3] addresses T3, panel of 374 wild-type kinases (Homo sapiens, UniProt O96013).
T3 construct: purchased Reaction Biology Corporation
As to conditions: read-out: % Enzyme Activity (relative to DMSO controls), kinase PAK4.

In experiment [4] the target is T4, panel of 374 wild-type kinases (Homo sapiens, UniProt P17612).
T4 construct: purchased Reaction Biology Corporation
The following applies: read-out: % Enzyme Activity (relative to DMSO controls), kinase PKA.

In experiment [5] the target is T5, panel of 374 wild-type kinases (Homo sapiens, UniProt Q02750).
T5 construct: purchased Reaction Biology Corporation
The following applies: read-out: % Enzyme Activity (relative to DMSO controls), MEK1.

In experiment [6] the target is T6, panel of 374 wild-type kinases (Homo sapiens, UniProt Q8N4C8).
T6 construct: purchased Reaction Biology Corporation
As to conditions: read-out: % Enzyme Activity (relative to DMSO controls), MINK/MINK1.

In experiment [7] the target is T7, panel of 374 wild-type kinases (Homo sapiens, UniProt Q96GD4).
T7 construct: purchased Reaction Biology Corporation
The following applies: read-out: % Enzyme Activity (relative to DMSO controls), Aurora B.

The target in experiment [8] is T8, panel of 374 wild-type kinases (Homo sapiens, UniProt Q9H093).
T8 construct: purchased Reaction Biology Corporation
T8 sequence (Q9H093 1-628): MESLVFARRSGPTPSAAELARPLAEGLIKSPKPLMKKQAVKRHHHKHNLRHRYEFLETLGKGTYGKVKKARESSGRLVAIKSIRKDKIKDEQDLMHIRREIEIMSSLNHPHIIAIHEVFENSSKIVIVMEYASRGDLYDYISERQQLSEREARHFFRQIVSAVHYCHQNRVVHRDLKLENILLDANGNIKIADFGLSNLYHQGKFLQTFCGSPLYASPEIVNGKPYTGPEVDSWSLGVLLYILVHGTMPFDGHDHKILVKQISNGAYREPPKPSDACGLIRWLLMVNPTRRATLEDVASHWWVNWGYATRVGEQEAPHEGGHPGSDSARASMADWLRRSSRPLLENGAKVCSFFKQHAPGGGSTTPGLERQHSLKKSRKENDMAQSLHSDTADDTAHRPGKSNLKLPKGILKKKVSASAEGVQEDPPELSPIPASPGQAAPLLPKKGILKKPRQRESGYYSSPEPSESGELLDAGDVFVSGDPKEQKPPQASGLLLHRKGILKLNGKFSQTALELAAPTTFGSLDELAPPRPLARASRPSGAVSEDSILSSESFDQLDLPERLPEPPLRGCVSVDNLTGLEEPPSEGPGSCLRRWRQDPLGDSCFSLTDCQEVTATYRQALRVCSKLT
The following applies: read-out: % Enzyme Activity (relative to DMSO controls), kinase SNARK/NUAK2.

Experiment [9] addresses T9, panel of 374 wild-type kinases (Homo sapiens, UniProt Q9NRM7).
T9 construct: purchased Reaction Biology Corporation
T9 sequence (Q9NRM7 1-1088): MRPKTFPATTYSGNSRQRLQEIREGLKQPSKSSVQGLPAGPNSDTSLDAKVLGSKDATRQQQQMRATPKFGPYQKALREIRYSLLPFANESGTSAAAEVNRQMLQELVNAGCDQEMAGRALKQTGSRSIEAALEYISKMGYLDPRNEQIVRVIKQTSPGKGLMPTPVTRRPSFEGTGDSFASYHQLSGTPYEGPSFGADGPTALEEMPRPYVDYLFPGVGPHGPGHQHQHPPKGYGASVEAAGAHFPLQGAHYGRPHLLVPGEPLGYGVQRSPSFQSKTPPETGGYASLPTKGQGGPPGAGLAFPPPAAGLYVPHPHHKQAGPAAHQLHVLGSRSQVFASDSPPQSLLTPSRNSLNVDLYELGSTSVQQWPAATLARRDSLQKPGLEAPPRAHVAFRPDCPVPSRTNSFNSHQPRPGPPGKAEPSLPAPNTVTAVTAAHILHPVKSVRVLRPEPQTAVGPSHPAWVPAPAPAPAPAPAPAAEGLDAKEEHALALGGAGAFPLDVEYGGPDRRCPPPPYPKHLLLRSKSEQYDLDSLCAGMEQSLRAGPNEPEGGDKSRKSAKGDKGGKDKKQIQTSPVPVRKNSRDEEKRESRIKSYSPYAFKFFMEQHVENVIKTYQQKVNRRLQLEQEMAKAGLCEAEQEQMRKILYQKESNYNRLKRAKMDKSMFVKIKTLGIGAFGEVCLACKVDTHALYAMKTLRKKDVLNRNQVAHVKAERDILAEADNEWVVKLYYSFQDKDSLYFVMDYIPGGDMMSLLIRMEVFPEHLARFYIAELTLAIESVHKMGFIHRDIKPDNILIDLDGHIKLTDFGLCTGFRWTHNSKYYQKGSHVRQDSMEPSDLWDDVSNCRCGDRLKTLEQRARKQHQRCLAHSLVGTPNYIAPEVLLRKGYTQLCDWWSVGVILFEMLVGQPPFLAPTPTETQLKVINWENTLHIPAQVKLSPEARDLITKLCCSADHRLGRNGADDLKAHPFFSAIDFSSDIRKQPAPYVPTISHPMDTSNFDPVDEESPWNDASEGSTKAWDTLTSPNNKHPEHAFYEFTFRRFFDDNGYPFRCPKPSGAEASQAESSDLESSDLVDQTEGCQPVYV
As to conditions: read-out: % Enzyme Activity (relative to DMSO controls), LATS2.

T2 sequence (O75676 whole entry): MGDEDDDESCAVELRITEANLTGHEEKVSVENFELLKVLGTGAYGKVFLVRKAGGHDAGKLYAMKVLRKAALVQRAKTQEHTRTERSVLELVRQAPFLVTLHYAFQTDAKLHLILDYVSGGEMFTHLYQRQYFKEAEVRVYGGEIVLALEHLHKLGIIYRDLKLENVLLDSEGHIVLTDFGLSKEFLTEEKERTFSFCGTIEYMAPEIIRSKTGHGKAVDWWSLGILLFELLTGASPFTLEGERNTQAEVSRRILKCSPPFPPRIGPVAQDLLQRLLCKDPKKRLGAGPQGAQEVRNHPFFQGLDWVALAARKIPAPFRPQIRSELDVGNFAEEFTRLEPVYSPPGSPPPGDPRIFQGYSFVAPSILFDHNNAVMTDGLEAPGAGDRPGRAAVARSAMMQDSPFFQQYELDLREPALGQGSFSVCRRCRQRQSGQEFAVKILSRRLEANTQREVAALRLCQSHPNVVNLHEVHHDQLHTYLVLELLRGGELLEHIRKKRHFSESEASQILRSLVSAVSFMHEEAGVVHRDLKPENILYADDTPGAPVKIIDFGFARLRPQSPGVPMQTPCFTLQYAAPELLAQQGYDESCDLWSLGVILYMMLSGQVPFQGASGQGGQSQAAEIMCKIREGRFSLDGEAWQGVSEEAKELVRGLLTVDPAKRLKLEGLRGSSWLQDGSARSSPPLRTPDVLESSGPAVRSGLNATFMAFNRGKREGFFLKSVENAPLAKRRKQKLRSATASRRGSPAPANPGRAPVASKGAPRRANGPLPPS
T7 sequence (Q96GD4 whole entry): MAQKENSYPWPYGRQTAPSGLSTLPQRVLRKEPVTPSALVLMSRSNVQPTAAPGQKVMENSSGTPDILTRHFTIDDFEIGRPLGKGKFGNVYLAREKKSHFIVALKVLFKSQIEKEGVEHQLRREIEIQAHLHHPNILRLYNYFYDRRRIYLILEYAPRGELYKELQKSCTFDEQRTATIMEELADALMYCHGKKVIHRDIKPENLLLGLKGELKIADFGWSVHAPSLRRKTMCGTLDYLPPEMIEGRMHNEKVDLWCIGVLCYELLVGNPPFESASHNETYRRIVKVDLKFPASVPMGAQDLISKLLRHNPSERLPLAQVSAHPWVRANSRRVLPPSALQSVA
T6 sequence (Q8N4C8 whole entry): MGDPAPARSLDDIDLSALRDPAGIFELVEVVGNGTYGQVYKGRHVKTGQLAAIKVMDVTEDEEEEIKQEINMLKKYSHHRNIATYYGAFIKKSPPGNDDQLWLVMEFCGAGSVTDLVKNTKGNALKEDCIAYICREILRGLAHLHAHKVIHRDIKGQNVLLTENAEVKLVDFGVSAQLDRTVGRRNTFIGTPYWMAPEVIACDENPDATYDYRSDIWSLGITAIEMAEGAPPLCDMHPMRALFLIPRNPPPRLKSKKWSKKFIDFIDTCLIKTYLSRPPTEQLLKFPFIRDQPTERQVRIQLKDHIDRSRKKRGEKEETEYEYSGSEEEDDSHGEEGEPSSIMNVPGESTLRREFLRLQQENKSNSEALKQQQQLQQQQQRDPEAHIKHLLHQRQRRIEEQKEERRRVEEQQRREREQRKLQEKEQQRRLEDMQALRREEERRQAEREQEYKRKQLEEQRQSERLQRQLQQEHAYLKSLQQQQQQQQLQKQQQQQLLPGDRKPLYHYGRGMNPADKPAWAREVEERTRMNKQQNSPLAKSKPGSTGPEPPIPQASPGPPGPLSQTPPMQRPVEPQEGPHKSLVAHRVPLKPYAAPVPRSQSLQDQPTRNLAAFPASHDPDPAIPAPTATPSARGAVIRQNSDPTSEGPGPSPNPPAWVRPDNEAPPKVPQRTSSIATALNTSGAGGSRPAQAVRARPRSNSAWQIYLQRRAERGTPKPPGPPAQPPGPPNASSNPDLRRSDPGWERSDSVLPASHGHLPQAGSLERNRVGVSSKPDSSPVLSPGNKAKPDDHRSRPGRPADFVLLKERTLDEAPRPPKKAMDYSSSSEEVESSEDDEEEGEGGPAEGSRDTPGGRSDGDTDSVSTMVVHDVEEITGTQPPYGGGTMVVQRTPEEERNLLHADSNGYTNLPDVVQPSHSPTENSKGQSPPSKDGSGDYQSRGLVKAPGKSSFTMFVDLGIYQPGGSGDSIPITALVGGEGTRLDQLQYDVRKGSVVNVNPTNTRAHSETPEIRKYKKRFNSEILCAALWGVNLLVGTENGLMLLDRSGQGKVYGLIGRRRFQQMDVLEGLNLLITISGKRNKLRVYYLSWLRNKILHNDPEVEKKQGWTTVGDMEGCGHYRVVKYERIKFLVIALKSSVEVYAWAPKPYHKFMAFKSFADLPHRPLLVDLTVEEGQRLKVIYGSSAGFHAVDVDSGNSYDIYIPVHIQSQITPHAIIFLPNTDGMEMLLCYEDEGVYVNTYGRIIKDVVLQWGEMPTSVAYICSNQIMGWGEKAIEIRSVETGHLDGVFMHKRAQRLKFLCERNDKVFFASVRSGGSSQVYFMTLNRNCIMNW
T3 sequence (O96013 whole entry): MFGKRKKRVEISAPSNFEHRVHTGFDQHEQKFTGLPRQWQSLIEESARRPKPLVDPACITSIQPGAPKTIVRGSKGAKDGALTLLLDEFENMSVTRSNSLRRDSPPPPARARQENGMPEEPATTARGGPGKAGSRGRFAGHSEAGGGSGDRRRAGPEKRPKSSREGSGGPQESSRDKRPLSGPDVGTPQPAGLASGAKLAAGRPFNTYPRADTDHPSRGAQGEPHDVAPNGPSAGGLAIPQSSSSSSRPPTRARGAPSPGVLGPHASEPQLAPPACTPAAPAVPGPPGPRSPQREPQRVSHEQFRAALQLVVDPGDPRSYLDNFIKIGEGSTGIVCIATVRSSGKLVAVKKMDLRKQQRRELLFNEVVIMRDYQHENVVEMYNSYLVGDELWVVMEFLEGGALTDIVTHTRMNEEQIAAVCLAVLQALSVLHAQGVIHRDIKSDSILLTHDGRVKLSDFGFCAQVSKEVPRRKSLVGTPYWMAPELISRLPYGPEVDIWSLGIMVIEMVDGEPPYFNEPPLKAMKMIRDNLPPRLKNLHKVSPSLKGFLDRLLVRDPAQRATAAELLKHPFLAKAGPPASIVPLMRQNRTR
T1 sequence (O75460 19-977): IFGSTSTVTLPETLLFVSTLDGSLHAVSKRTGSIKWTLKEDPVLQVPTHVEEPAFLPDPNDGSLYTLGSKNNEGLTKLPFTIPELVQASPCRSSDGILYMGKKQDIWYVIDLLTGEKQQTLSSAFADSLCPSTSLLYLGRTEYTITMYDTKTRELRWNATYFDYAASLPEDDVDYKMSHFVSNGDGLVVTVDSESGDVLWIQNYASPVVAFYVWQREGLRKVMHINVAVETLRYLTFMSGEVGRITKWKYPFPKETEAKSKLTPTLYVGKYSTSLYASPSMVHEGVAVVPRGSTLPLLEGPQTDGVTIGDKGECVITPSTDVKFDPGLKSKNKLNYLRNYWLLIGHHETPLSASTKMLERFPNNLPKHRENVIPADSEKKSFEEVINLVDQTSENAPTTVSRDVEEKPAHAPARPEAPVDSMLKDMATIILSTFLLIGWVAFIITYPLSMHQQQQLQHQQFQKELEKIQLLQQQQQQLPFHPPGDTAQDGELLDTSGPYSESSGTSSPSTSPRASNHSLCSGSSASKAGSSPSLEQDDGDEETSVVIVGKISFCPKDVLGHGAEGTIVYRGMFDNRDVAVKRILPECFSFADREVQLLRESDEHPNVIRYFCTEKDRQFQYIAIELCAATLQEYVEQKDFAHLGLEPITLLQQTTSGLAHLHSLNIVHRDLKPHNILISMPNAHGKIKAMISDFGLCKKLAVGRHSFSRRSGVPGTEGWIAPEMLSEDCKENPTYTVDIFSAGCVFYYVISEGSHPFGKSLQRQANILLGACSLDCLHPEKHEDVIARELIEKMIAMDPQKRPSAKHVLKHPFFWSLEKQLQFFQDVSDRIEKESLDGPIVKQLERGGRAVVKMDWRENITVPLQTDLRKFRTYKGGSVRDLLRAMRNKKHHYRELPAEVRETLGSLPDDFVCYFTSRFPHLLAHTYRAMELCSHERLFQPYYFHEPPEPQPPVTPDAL
T5 sequence (Q02750 whole entry): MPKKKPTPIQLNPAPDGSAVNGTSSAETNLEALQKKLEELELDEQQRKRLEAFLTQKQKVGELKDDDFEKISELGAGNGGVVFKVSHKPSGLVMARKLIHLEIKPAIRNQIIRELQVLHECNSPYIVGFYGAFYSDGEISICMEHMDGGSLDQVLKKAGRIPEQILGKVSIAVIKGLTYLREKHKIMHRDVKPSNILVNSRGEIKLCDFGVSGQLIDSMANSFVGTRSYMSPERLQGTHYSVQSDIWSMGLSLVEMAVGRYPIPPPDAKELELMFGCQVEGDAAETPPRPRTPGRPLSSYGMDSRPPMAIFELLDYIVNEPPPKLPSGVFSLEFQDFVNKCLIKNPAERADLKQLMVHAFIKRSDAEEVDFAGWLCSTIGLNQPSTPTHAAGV

In the case of `Cc1sc(C(=O)NC2COC2)cc1-n1cc(NC(=O)Nc2c(F)cccc2Cl)cn1` [Compound 27, 4-(4-(3-(2-chloro-6-fluorophenyl)ureido)-1H-pyrazol-1-yl)-5-methyl-N-(oxetan-3-yl)thiophene-2-carboxamide], the remaining activity at 10 µM in experiment [1] (10 uM) was 94.1%; in experiment [2] (10 uM), 105%; in experiment [3] (10 uM), 106%; in experiment [4] (10 uM), 94.5%; in experiment [5] (10 uM), 95.5%; in experiment [6] (10 uM), 102%. For the same compound, the remaining activity at 10 µM is 96.4% in experiment [7] (10 uM), 112% in experiment [8] (10 uM) and 94.7% in experiment [9] (10 uM).

As to `O=C(Nc1cnn(-c2csc(C(=O)NC3COC3)c2)c1)Nc1c(F)cccc1Cl` [Compound 25, 4-(4-(3-(2-chloro-6-fluorophenyl)ureido)-1H-pyrazol-1-yl)-N-(oxetan-3-yl)thiophene-2-carboxamide], the remaining activity at 5 µM in experiment [1] was 95.8%; in [2] it was 99.8%; in experiment [3] it was 107%; in experiment [4] it was 108%; in [5], 107%; in [6] it was 62.2%. The remaining activity at 5 µM in [7] amounted to 69.8%; in experiment [8] it was 97.8%; in experiment [9] it was 104%.

For the compound `O=C(Nc1cnn(-c2csc(C(=O)NC3COC3)c2)c1)Nc1ccccc1Cl` [Compound 17, 4-(4-(3-(2-chlorophenyl)ureido)-1H-pyrazol-1-yl)-N-(oxetan-3-yl)thiophene-2-carboxamide], the remaining activity at 5 µM turned out to be 94.3% in experiment [1]; 90.7% in [2]; 98.9% in experiment [3]; 99.8% in experiment [4]; 104% in experiment [5]; 79.4% in [6]. Moreover, the remaining activity at 5 µM in [7] was 93%; in experiment [8], 99.8%; in [9], 96%.
